Assay results taken from patent publication US20100015126A1, “Methods of Binding of Cross-Beta Structures By Chaperones” (priority 2006, published 2010).

How the values were obtained:
[1] = target: T1, human mitochondrial HSP60 (Homo sapiens, UniProt P10809); test: Competition ELISA: HSP60 binding under influence of ThT or Congo red; conditions: concentration series of compound
T1 construct: Dr. W. van Eden, Utrecht University; host or cells: E. coli

[2] = target: T2, recombinant human HSP90beta (Homo sapiens, UniProt P08238); test: Competition ELISA: HSP90 binding under influence of crossbeta binding compounds and geldanamycin; conditions: 20 μg/ml HSP90, geldanamycin 10 μM; for Binding of HSP90 to coated Aβ25-35 under influence of compound: sRAGE 79 μg/ml, HSA 10 μM
T2 construct: purchased Dr. S. Rüdiger, Cellular Protein Chemistry, Utrecht University
T2 sequence (P08238 whole entry): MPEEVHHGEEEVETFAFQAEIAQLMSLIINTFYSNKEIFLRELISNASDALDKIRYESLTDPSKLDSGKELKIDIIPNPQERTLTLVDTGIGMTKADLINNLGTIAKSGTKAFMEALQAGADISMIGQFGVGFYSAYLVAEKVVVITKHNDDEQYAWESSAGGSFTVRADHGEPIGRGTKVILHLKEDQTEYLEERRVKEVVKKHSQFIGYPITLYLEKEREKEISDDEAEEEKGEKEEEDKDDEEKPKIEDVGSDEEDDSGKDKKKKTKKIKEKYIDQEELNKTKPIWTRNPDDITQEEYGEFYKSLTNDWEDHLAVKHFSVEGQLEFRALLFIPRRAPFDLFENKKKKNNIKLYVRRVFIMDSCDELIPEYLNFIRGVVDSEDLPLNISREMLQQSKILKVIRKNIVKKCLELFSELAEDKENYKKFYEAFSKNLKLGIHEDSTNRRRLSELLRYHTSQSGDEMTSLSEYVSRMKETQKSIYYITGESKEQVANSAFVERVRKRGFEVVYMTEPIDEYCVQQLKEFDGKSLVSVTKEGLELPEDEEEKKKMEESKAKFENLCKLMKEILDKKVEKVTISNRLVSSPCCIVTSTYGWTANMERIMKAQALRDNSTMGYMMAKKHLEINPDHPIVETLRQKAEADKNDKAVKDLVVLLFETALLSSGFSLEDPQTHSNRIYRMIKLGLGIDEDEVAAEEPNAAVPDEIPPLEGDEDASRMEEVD
Experimental: Binding of chaperones to immobilized (misfolded) protein ligands was determined using an enzyme linked immuno sorbent assay (ELISA) approach. For this purpose 50 μl/well of potential ligands at indicated concentrations or coat buffer only for control and background measurement purposes, were coated overnight at 4° C. or coated for 1 h at room temperature, with motion, in 50 mM NaHCO3 pH 9.6 (coat buffer). In general, ligands were coated at 5 μg/ml, unless stated otherwise. […] Native haemoglobin (Sigma-Aldrich, H7379), albumin, IgIV Gammagard and ovalbumin controls were prepared from lyophilized stocks. The controls were prepared by dissolving lyophilized proteins at 1 mg/ml in PBS upon resuspending by pipetting, followed by a 30 minutes period at the roller device, at room temperature. The protein solutions were centrifuged for 10 minutes at 16,000*g and diluted in coat buffer. […] Plates were washed three times and incubated in triplicate with indicated chaperone dilution series, at 50 μl/well, for 1 h at room temperature, with constant motion. For HSP90, 5 mM DTT is incorporated in the binding buffer (PBS/0.1% Tween20) to avoid unwanted disulfide bond formation of the HSP90. […] After four wash cycles, secondary antibodies were added to the wells when required, 50 μl/well, for 45′ at room temperature, with motion. RAMPO and SWARPO were used at 3000 times dilution. […] In a second experiment with more immobilized misfolded proteins and controls, the detection of bound HSP90 with the mix of two anti-HSP90 antibodies was achieved by mixing 1:1500 SWARPO with 1:3000 RAMPO. After 5 washes with wash buffer followed by two washes with PBS, binding of antibodies was assessed. […] The reaction was stopped after 5 minutes with 1% H2SO4 in H2O. Plates were read at 450 nm. Triplicates were averaged and standard deviations calculated. Background signals obtained with buffer-coated wells were subtracted (binding of primary antibody to empty wells), as well as background signals obtained with ligand-coated wells in which the chaperones were omitted (binding of primary and secondary antibody to coated ligands). Subsequently, sub-optimal concentrations of chaperones for binding to misfolded protein ligands are determined, and these concentrations are used for inhibition studies.

[3] = test system: HUVECs; test: Adhesion of HUVECs to immobilized misfolded proteins under influence of BiP (LDH read-out); type: cell-based, human; conditions: for Number of adhered HUVECs after preincubation of coated protein with BiP: BiP approximately 200 μg/ml
Experimental: HUVECs are primary endothelial cells (ECs), isolated from umbilical cords using 0.1% collagenase (Sigma, C0130, 100 mg, dissolved in 100 ml M199 medium supplemented with 10% FCS (Gibco 10106-169) and Penicillin-Streptomycin (P/S, Gibco, 15140-122)), according to widespread used standard procedures known to a person skilled in the art. HUVECs have the typical features of ECs, e.g. cobblestone morphology and von Willebrand factor storage in Weibel-Palade bodies. HUVECs can regularly be cultured up to passage 5; beyond passage 5 HUVECs loose typical EC markers. The isolation is described here in brief. The umbilical cord is washed for less than 3 minutes in ethanol and subsequently with PBS. The vein is connected to canules and flushed with 10 ml PBS, followed by loading with the 0.1% collagenase solution. After a 15 minute-incubation at 37° C., the detached endothelial cell suspension is recovered by flushing the vein with 10 ml medium which is subsequently added to the collagenase solution. The EC suspension is centrifuged for 5 minutes at room temperature, at low g-force. Supernatant is discarded and the cell pellet is resuspended in 5 ml ‘rich medium’ (EGM-2; Endothelial basal medium (EBM-2, Cambrex, CC-3156) and Singlequots containing supplements for endothelial cells (Cambrex, CC-4176)). Cells (passage 0, P0) are seeded in a culture flask coated with 0.5% gelatin (Sigma, G1393). To facilitate the adhesion of the endothelial cells, human fibronectin is added to the cell culture at a final concentration of 2 μg/ml. EC's are cultured at 37° C., at 5% CO2. The cell culture medium is refreshed every 2-3 days up to when the cells grow to confluency. Then, with the addition of trypsin-EDTA, the cells are detached from the flask, centrifuged at low g-force, resuspended in rich medium and seeded in larger 0.5% gelatin-precoated cell culture flasks.
In 96-wells plates (Immulon high-binding plates, Thermo Labsystems 3355) proteins, i.e. BSA-AGE, control BSA, IgIV Gammagard, crossbeta dIgIV-86 at 5 μg/ml, 10 μg/ml misfolded oxLDL, or gelatin (Sigma G1393, 2% solution in H2O or PBS, positive control for adhesion to ECs) were coated using 100 μl solutions, in six wells for each condition. Following incubation for 2 hours at 37° C. the solutions were discarded and the wells blocked for 1 hour at 37° C. with 100 μl/well of 1% polyvinyl-pyrrolidone (PVP, Sigma P5288) in PBS, filter (0.22 μm) sterilized. […] Subsequently, the block solution was discarded. Next, the plates were incubated with 40 μl RPMI 1640 medium (Gibco, 52400) and 10 μl of the potential inhibitor, i.e. recombinant human BiP at approximately 200 μg/ml final concentration. HUVECs were obtained by trypsinization. […] The absorbance at 490 nm was measured on a Versamax microplate reader at various time points.

T1 sequence (P10809 27-573): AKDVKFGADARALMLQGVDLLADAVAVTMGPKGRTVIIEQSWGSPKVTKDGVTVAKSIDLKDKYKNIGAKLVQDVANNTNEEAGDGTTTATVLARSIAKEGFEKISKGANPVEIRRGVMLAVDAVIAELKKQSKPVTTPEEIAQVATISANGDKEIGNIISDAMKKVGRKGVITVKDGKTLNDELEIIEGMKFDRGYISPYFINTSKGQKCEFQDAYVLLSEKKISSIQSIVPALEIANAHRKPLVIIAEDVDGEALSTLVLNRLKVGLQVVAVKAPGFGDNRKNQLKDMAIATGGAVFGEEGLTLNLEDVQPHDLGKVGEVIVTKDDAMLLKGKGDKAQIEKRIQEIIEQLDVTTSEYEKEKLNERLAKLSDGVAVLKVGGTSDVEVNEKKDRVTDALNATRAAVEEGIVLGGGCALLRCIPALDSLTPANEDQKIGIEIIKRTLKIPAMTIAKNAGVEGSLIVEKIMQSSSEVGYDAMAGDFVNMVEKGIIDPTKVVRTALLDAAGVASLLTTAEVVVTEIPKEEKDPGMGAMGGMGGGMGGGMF

Molecule	Binding of HSP60 to Aβ42 under influence of compound ([1]; 10 or 30 μg/ml HSP60)	Binding of HSP60 to BSA-AGE under influence of compound ([1]; 10 or 30 μg/ml HSP60)	Binding of HSP90 to coated HbAGE under influence of compound [2]	Binding of HSP90 to coated Aβ25-35 under influence of compound [2]	Binding of HSP60 to misfolded IgIV (dIgIV-86) under influence of compound ([1]; 10 μg/ml HSP60)	Number of adhered HUVECs after preincubation of coated protein with BiP [3]	Adhesion of HUVECs to coated protein ([3]; without BiP, LDH activity after lysis)
Nc1c(/N=N/c2ccc(-c3ccc(/N=N/c4cc(S(=O)(=O)O)c5ccccc5c4N)cc3)cc2)cc(S(=O)(=O)O)c2ccccc12 [Congo red]	inhibit	inhibited	inhibited	stimulatory activity	–	–	–
Cc1ccc2c(c1)sc(-c1ccc(N(C)C)cc1)[n+]2C.[Cl-] [ThT, Thioflavin T]	inhibit	–	had no influence	stimulatory activity	stimulates	–	–
BSA-AGE	–	–	–	–	–	hardly increase	to a similar extent as to gelatin
native BSA: non-modified bovine serum albumin control	–	–	–	–	–	hardly increase	–
